Test results taken from PubChem BioAssay (NCI).
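GI50 marks 50% less growth. TGI denotes the concentration required for complete inhibition of growth.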

Key:
Assay in all cases: NCI anticancer screen, dose series, 384-well format
[1] = system: SK-MEL-28 melanoma
[2] = system: HOP-62 NSCLC
[3] = system: OVCAR-8 ovarian
[4] = system: HCT-15 colon
[5] = system: OVCAR-4 ovarian
[6] = system: SF-539 CNS
[7] = system: NCI-H522 lung
[8] = system: LOX IMVI melanoma
[9] = system: MDA-MB-468 breast
[10] = system: SF-295 CNS
[11] = system: RPMI-8226 leukemia
[12] = system: HL-60(TB) leukemia
[13] = system: HT29 colon
[14] = system: EKVX NSCLC
[15] = system: NCI/ADR-RES ovarian
[16] = system: ACHN renal
[17] = system: HS 578T breast
[18] = system: TK-10 renal
[19] = system: PC-3 prostate
[20] = system: SNB-75 CNS
[21] = system: SW-620 colon
[22] = system: IGROV1 ovarian
[23] = system: A498 renal
[24] = system: SN12C renal
[25] = system: UO-31 renal
[26] = system: COLO 205 colon
[27] = system: MALME-3M melanoma
[28] = system: MDA-MB-231 breast
[29] = system: KM12 colon

C[C@@H](NC(=O)c1ncnc(N)c1Cl)c1ncc(C(=O)Nc2cc(C(F)(F)F)c(Cl)cn2)s1
GI50 [1]: 0.419 µM | TGI [1]: 2.67 µM | GI50 [2]: 12 µM | TGI [2]: 24.8 µM | GI50 [3]: 14.4 µM | TGI [3]: 27.7 µM | GI50 [4]: 11.2 µM | TGI [4]: 25.6 µM | GI50 [5]: 20.6 µM | TGI [5]: 38 µM | GI50 [6]: 17.4 µM | TGI [6]: 35.9 µM | GI50 [7]: 13.7 µM | TGI [7]: 26.6 µM | GI50 [8]: 1.42 µM | TGI [8]: 13.7 µM | GI50 [9]: 22 µM | TGI [9]: 39 µM | GI50 [10]: 17.7 µM | TGI [10]: 32.8 µM | GI50 [11]: 13.9 µM | TGI [11]: 27.1 µM | GI50 [12]: 0.717 µM | TGI [12]: 10.8 µM | GI50 [13]: 0.555 µM | TGI [13]: 15.4 µM | GI50 [14]: 14.8 µM | TGI [14]: 29.1 µM | GI50 [15]: 16.9 µM | TGI [15]: 32 µM | GI50 [16]: 13.7 µM | TGI [16]: 37.8 µM | GI50 [17]: 15 µM | TGI [17]: 28.4 µM | GI50 [18]: 18.8 µM | TGI [18]: 36.4 µM | GI50 [19]: 20.4 µM | TGI [19]: 35 µM | GI50 [20]: 23.7 µM | TGI [20]: 48.1 µM | GI50 [21]: 10.8 µM | TGI [21]: 26.6 µM | GI50 [22]: 5.42 µM | TGI [22]: 20.8 µM | GI50 [23]: 16.1 µM | TGI [23]: 39.7 µM | GI50 [24]: 15.3 µM | TGI [24]: 40.6 µM | GI50 [25]: 11.5 µM | TGI [25]: 32.5 µM | GI50 [26]: 0.441 µM | TGI [26]: 12.2 µM | GI50 [27]: 0.0475 µM | TGI [27]: 0.289 µM | GI50 [28]: 2.11 µM | TGI [28]: 20.3 µM | GI50 [29]: 13.1 µM | TGI [29]: 31.3 µM
